pIC50: −log10 of the molar value. Read-outs that look alike come from different tables or passages of the source. Positions of bridges follow the written chain, without caps; N, C: chain ends. Non-standard residues stand in square brackets, D forms with d. Residues, ends and D or L forms follow the SMILES beside them. ξ: configuration not given here. Phe(3,4,5-F3) = N[C@@H](Cc1cc(F)c(F)c(F)c1)C(=O)O; Phe(4-F) = N[C@@H](Cc1ccc(F)cc1)C(=O)O; Pro(4R-NH2) = N[C@H]1CN[C@H](C(=O)O)C1; d(cisHyp) = O=C(O)[C@H]1C[C@@H](O)CN1; Bta = N[C@@H](Cc1csc2ccccc12)C(=O)O; Hyp = O=C(O)[C@@H]1C[C@@H](O)CN1; NMeF = CN[C@@H](Cc1ccccc1)C(=O)O; NMeNle = CCCC[C@H](NC)C(=O)O; NMeM = CN[C@@H](CCSC)C(=O)O; dPip = O=C(O)[C@H]1CCCCN1; NMeA = CN[C@@H](C)C(=O)O; Orn = NCCC[C@H](N)C(=O)O; dThz = O=C(O)[C@H]1CSCN1; Dab = NCC[C@H](N)C(=O)O; Dap = NC[C@H](N)C(=O)O; ξC = NC(CS)C(=O)O; Sar = CNCC(=O)O
Columns and labels:
[1] = molecular target: T1, LK35.2-hPD-L1 cells / PE-labeled PD-1-Ig (Homo sapiens, UniProt Q9NZQ7); experiment: LK35.2-hPD-L1 cell binding high-content screening assay; format: cell-based
T1 construct: expressed in transfected cells; host or cells: LK35.2 mouse B cell line
T1 sequence (Q9NZQ7 19-290): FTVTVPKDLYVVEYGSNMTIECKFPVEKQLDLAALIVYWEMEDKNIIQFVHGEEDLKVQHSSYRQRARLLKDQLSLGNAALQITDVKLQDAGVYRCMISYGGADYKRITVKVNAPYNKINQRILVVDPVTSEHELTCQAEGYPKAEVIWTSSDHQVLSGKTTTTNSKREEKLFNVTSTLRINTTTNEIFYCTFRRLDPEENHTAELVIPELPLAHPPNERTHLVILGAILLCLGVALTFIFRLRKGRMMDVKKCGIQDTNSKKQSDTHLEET
Summary of the method: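 Mouse LK35.2 B cells stably over-expressing human PD-L1, cultured overnight, treated with compound plus PE-labeled human PD-1-Ig (1 nM final) in RPMI/10% FCS for 1 h at 37 °C. After washing, bound fluorescence quantified by high-content imaging.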

Human PD-L1/PD-1 = molecular target: T2, Human PD-L1/PD-1 (Homo sapiens, UniProt Q9NZQ7); experiment: HTRF PD-1-Ig/PD-L1-His binding assay (human PD-L1)
T2 construct: made in house; host or cells: HEK293T
T2 sequence (Q9NZQ7 with tags, fused parts or gaps): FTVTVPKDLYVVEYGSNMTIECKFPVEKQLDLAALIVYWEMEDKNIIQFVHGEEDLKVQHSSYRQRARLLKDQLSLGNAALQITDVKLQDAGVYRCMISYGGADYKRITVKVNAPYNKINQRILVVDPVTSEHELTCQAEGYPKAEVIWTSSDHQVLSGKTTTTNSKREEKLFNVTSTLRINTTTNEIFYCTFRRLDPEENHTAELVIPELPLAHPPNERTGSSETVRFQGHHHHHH
Summary of the method: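 Soluble PD-1-Ig binding to PD-L1-His measured by HTRF in dPBS with 0.1% BSA and 0.05% Tween-20. Detection used europium cryptate anti-Ig antibody (1 nM final) and APC anti-His antibody (20 nM final) added on top of the binding reaction.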

[2] = cluster symbol, cell line of CBA not given (LK35.2-hPD-L1 or 293T-hPD-L1), read-out: CBA IC50 cluster
[3] = cluster symbol, read-out: HTRF IC50 cluster
[4] = cell binding assay, cell line not given, cluster symbol, read-out: CBA IC50 cluster

pIC50 [1, 2]	pIC50 (Human PD-L1/PD-1; [3])	pIC50 [1, 4]	also measured	SMILES
< 7.13	< 7.52			CCCC[C@H]1C(=O)N(C)CC(=O)N[C@@H](CC(=O)O)C(=O)N[C@@H](C(C)C)C(=O)N(C)[C@@H](Cc2cnc[nH]2)C(=O)N[C@@H](Cc2ccc(O)cc2)C(=O)N(C)CC(=O)N[C@@H](Cc2c[nH]c3ccccc23)C(=O)N[C@@H](Cc2ccc(O)cc2)C(=O)N[C@@H](CC(C)C)C(=O)N[C@H](C(=O)NCC(N)=O)CSCC(=O)N[C@@H](Cc2ccccc2)C(=O)N(C)[C@@H](Cc2cnc[nH]2)C(=O)N1C [Example 3058-A] (HELM PEPTIDE1{[O=C(C[*:3])[*:2]].F.[meH].[CCCC[C@@H](C(=O)[*:2])N(C)[*:1]].[Sar].D.V.[meH].Y.[Sar].W.Y.L.C.G.[am]}$PEPTIDE1,PEPTIDE1,1:R3-14:R3$$$V2.0)
7.14 to 8.32	8.17 to 9.41			CCCC[C@H]1C(=O)N(C)CC(=O)N[C@@H](CC(=O)O)C(=O)N[C@@H](C(C)C)C(=O)N(C)[C@@H](Cc2ccccc2)C(=O)N[C@@H](Cc2ccc(O)cc2)C(=O)N(C)CC(=O)N[C@@H](Cc2c[nH]c3ccccc23)C(=O)N[C@@H](Cc2ccc(F)cc2)C(=O)N[C@@H](CC(C)C)C(=O)N[C@H](C(=O)NCC(N)=O)CSCC(=O)N[C@@H](Cc2ccccc2)C(=O)N(C)[C@@H](Cc2ccccc2)C(=O)N1C [Example 3076] ({CH2CO}-F[NMeF][NMeNle][Sar]DV[NMeF]Y[Sar]W[Phe(4-F)]LCG-NH2; thioether N-13)
			pIC50 ([1]; CBA IC50 value, cell binding assay, cell line not given, value given instead of cluster): 7.32; pIC50 (Human PD-L1/PD-1; HTRF IC50 value, value given instead of cluster): 7.92	CCCC[C@H]1C(=O)N(C)CC(=O)N[C@@H](CC(=O)O)C(=O)N[C@@H](C(C)C)C(=O)N(C)[C@@H](Cc2ccccc2)C(=O)N[C@@H](CCC(=O)O)C(=O)N(C)CC(=O)N[C@@H](Cc2c[nH]c3ccccc23)C(=O)N[C@@H](Cc2ccc(O)cc2)C(=O)N[C@@H](CCCNC(=N)N)C(=O)N[C@H](C(=O)NCC(N)=O)CSCC(=O)N[C@@H](Cc2ccccc2)C(=O)N(C)[C@@H](Cc2ccccc2)C(=O)N1C [Example 3559] (HELM PEPTIDE1{[O=C(C[*:3])[*:2]].F.[meF].[CCCC[C@@H](C(=O)[*:2])N(C)[*:1]].[Sar].D.V.[meF].E.[Sar].W.Y.R.C.G.[am]}$PEPTIDE1,PEPTIDE1,1:R3-14:R3$$$V2.0)
7.14 to 8.32	8.17 to 9.41			CCCC[C@H]1C(=O)N(C)[C@@H](CCCC)C(=O)N[C@@H](C)C(=O)N[C@H](C(=O)NCC(N)=O)CSCC(=O)N[C@@H](Cc2ccc(O)cc2)C(=O)N(C)[C@@H](C)C(=O)N[C@@H](CCCN)C(=O)N2CCC[C@H]2C(=O)N[C@@H](Cc2cnc[nH]2)C(=O)N[C@@H](CCC(=O)O)C(=O)N2C[C@H](O)C[C@H]2C(=O)N[C@@H](Cc2c[nH]c3ccccc23)C(=O)N[C@@H](CO)C(=O)N[C@@H](Cc2c[nH]c3ccccc23)C(=O)N1C [Example 1179] ({CH2CO}-Y[NMeA][Orn]PHE[Hyp]WSW[NMeNle][NMeNle]ACG-NH2; thioether N-14)
	8.17 to 9.41	7.14 to 8.32		CCCC[C@H]1C(=O)N(C)[C@@H](CCCC)C(=O)N[C@@H](CN)C(=O)N[C@H](C(=O)NCC(N)=O)CSCC(=O)N[C@@H](Cc2ccc(O)cc2)C(=O)N(C)[C@@H](C)C(=O)N[C@@H](CC(N)=O)C(=O)N2CCC[C@H]2C(=O)N[C@@H](CN)C(=O)N[C@@H](CC(C)C)C(=O)N2C[C@H](O)C[C@H]2C(=O)N[C@@H](Cc2c[nH]c3ccccc23)C(=O)N[C@@H](CCN)C(=O)N[C@@H](Cc2c[nH]c3ccccc23)C(=O)N1C [Example 5059] ({CH2CO}-Y[NMeA]NP[Dap]L[Hyp]W[Dab]W[NMeNle][NMeNle][Dap]CG-NH2; thioether N-14)
	7.52 to 8.17	8.33 to 9.80		CCCC[C@H]1C(=O)N(C)[C@@H](CCCC)C(=O)N[C@@H](CC(C)C)C(=O)N[C@H](C(=O)NCC(N)=O)CSCC(=O)N[C@@H](Cc2ccc(O)cc2)C(=O)N(C)[C@@H](C)C(=O)N[C@@H](CC(N)=O)C(=O)N2CCC[C@H]2C(=O)N[C@@H](Cc2c[nH]cn2)C(=O)N[C@@H](CCC(=O)O)C(=O)N2C[C@H](O)C[C@H]2C(=O)N[C@@H](Cc2c[nH]c3ccccc23)C(=O)N[C@@H](CO)C(=O)N[C@@H](Cc2c[nH]c3ccccc23)C(=O)N1C [Example 5003] ({CH2CO}-Y[NMeA]NPHE[Hyp]WSW[NMeNle][NMeNle]LCG-NH2; thioether N-14)
			pIC50 ([1]; cell binding assay, cell line not given, value given instead of cluster, read-out: CBA IC50 value): 8.75; pIC50 (Human PD-L1/PD-1; value given instead of cluster, read-out: HTRF IC50 value): 8.16	CCCC[C@H]1C(=O)N(C)CC(=O)N[C@@H](CC(=O)O)C(=O)N[C@@H](C(C)C)C(=O)N(C)[C@@H](Cc2ccccc2)C(=O)N[C@@H](Cc2ccc(O)cc2)C(=O)N2CSC[C@@H]2C(=O)N[C@@H](Cc2c[nH]c3ccccc23)C(=O)N[C@@H](Cc2ccc(O)cc2)C(=O)N[C@@H](CC(C)C)C(=O)N[C@H](C(=O)NCC(N)=O)CSCC(=O)N[C@@H](Cc2ccccc2)C(=O)N(C)[C@@H](Cc2ccccc2)C(=O)N1C [Example 3601] ({CH2CO}-F[NMeF][NMeNle][Sar]DV[NMeF]Y[dThz]WYLCG-NH2; thioether N-13)
8.33 to 9.80	8.17 to 9.41			CCCC[C@H]1C(=O)N2C[C@H](O)C[C@@H]2C(=O)N2C[C@H](N)C[C@H]2C(=O)N[C@@H](C(C)C)C(=O)N(C)[C@@H](Cc2ccccc2)C(=O)N[C@@H](Cc2ccc(O)cc2)C(=O)N2CCCC[C@@H]2C(=O)N[C@@H](Cc2c[nH]c3ccccc23)C(=O)N[C@@H](Cc2ccc(O)cc2)C(=O)N[C@@H](CC(C)C)C(=O)N[C@H](C(=O)NCC(N)=O)CSCC(=O)N[C@@H](Cc2cc(F)c(F)c(F)c2)C(=O)N(C)[C@@H](Cc2ccccc2)C(=O)N1C [Example 3196] ({CH2CO}-[Phe(3,4,5-F3)][NMeF][NMeNle][d(cisHyp)][Pro(4R-NH2)]V[NMeF]Y[dPip]WYLCG-NH2; thioether N-13)
< 7.13	< 7.52			CCCC[C@H]1C(=O)N(C)CC(=O)N[C@@H](CC(=O)O)C(=O)N[C@@H](C(C)C)C(=O)N(C)[C@@H](Cc2ccccc2)C(=O)N[C@@H](Cc2ccc(O)cc2)C(=O)N(C)CC(=O)N[C@@H](Cc2c[nH]c3ccccc23)C(=O)N[C@@H](Cc2ccc(O)cc2)C(=O)N[C@@H](CC(C)C)C(=O)N[C@H](C(=O)NCC(N)=O)CSCC(=O)N[C@@H](Cc2cnc[nH]2)C(=O)N(C)[C@@H](Cc2ccccc2)C(=O)N1C [Example 3091] (HELM PEPTIDE1{[O=C(C[*:3])[*:2]].H.[meF].[CCCC[C@@H](C(=O)[*:2])N(C)[*:1]].[Sar].D.V.[meF].Y.[Sar].W.Y.L.C.G.[am]}$PEPTIDE1,PEPTIDE1,1:R3-14:R3$$$V2.0)
	8.17 to 9.41	8.33 to 9.80		CCCC[C@H]1C(=O)N[C@@H](C)C(=O)NC(C(=O)NCC(N)=O)CSCC(=O)N[C@@H](Cc2ccc(O)cc2)C(=O)N(C)[C@@H](C)C(=O)N[C@@H](CC(N)=O)C(=O)N2CCC[C@H]2C(=O)N[C@@H](CN)C(=O)N[C@@H](CC(C)C)C(=O)N2C[C@H](O)C[C@H]2C(=O)N[C@@H](Cc2c[nH]c3ccccc23)C(=O)N[C@@H](CO)C(=O)N[C@@H](Cc2csc3ccccc23)C(=O)N(C)[C@@H](CCSC)C(=O)N1C (some centres unmarked) [Example 9096] ({CH2CO}-Y[NMeA]NP[Dap]L[Hyp]WS[Bta][NMeM][NMeNle]A[ξC]G-NH2; thioether N-14)
